{
  "source": "patent US8580229B2",
  "about": "“Amyloid imaging as a surrogate marker for efficacy of anti-amyloid therapies” (University of Pittsburgh—of the Commonwealth System of …, priority 2004, dated 2013)",
  "tested_on": "amyloid deposition in AD brain (homogenates of frontal, temporal, parietal cortex and cerebellum)",
  "experiment": "[^3H]PIB binding to homogenates of postmortem brain",
  "set-up": "species or system human",
  "conditions": "AD n=5, control n=4; 1 nM [^3H]PIB",
  "method": "To determine whether benzothiazole amyloid imaging probes might be sensitive to changes in brain amyloid deposition caused by an anti-amyloid therapy in general, testing by immunization with AN-1792 was performed. Studies were performed for the binding of {N-methyl-^3H}2-[4′-(methylamino)phenyl]6-hydroxy-benzothiazole ([^3H]PIB) to homogenates of frontal cortex and cerebellum obtained from control subjects (n=4), AD patients (n=5) and from a single AN-1792-treated AD case (in duplicate). See, e.g., Example 9.\nThis [^11C]PIB retention follows the known topography of amyloid deposition in AD brain (Klunk et al. 2004, Ann. Neurol., 55 (3):306-19). To determine whether the present benzothiazole amyloid imaging probes are sensitive to changes in brain amyloid deposition caused by an anti-amyloid therapy in general, studies were performed for the binding of {N-methyl-^3H}2-[4′-(methylamino)phenyl]6-hydroxy-benzothiazole ([^3H]PIB) to homogenates of postmortem brain from […] AN-1792-treated AD cases. […] An aliquot was submitted for Aβ ELISA and another aliquot was assayed for [^3H]PIB binding after dilution with phosphate-buffered saline (100 mg tissue, incubated with 1 nM [^3H]PIB, filtered, washed and counted to determine bound [^3H]PIB).",
  "data": [
    {"smiles": "[3H]C([3H])([3H])Nc1ccc(-c2nc3ccc(O)cc3s2)cc1", "note": "[[^3H]PIB, {N-methyl-^3H}2-[4′-(methylamino)phenyl]6-hydroxy-benzothiazole]", "values": [
      {"measurement": "[^3H]PIB binding to frontal cortex homogenates of AD patients compared to control brain", "value": "elevated [^3H]PIB binding compared to control brain"}
    ]}
  ]
}
